Assay results taken from patent US5656638A, “Telomerase inhibitors” (Geron Corporation, priority 1995, dated 1997).
Entries after “also recorded” stand apart in the source; their conditions may differ. Like-named read-outs stand apart in the source and are kept apart here.

Target: T1, telomerase (Homo sapiens, UniProt O14746)
T1 construct: placing cells, tissues, or preferably a cellular extract or other preparation containing telomerase in contact with; endogenous in cells
Test: telomerase inhibition, IC50 (Table 1)
Type: biochemical
Source text: One method used to identify compounds of the invention that inhibit telomerase activity involves placing cells, tissues, or preferably a cellular extract or other preparation containing telomerase in contact with several known concentrations of a test compound in a buffer compatible with telomerase activity. […] Other methods for determining the inhibitory concentration of a compound of the invention against telomerase can be employed as will be apparent to those of skill in the art based on the disclosure herein.
With the above-described methods, IC50 values for several of the compounds of the present invention were determined. The values reported in Table 1 below are only approximate values; more exact IC50 values can be obtained by repetitive testing.

[1] = Table 1, approximate values only, read-out: IC50
[2] = summary of Table 1, approximate IC50 values, read-out: IC50 (bound stated in text)

T1 sequence (O14746 whole entry): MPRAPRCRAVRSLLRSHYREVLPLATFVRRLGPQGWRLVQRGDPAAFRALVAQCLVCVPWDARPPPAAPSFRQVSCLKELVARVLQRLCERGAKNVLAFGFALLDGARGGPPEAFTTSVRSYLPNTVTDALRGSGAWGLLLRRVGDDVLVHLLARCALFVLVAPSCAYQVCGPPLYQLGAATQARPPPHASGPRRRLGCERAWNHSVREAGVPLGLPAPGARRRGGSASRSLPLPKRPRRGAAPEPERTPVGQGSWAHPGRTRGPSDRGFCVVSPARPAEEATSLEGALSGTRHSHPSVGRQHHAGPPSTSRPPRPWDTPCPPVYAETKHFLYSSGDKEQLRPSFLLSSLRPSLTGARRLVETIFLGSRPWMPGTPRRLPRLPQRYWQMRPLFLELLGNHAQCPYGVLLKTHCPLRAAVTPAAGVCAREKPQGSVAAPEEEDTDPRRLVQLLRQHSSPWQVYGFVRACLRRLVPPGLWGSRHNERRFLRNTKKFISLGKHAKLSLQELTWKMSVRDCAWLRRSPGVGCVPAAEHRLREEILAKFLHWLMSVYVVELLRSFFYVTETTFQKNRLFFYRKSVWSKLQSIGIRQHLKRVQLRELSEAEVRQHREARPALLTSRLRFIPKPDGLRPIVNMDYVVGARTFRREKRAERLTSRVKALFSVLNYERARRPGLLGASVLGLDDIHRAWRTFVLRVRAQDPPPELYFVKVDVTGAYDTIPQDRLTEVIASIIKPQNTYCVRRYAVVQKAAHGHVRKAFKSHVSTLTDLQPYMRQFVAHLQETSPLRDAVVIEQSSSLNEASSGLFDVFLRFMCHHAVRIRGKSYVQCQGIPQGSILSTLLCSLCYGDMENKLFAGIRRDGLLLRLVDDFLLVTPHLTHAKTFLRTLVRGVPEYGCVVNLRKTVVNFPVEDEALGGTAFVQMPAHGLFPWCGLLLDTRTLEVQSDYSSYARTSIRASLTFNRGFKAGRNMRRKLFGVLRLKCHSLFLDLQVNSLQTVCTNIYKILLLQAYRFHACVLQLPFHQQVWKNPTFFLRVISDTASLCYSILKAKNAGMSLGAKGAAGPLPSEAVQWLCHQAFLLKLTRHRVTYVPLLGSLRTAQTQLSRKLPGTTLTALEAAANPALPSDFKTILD
T1 sequence (O60832 whole entry partner): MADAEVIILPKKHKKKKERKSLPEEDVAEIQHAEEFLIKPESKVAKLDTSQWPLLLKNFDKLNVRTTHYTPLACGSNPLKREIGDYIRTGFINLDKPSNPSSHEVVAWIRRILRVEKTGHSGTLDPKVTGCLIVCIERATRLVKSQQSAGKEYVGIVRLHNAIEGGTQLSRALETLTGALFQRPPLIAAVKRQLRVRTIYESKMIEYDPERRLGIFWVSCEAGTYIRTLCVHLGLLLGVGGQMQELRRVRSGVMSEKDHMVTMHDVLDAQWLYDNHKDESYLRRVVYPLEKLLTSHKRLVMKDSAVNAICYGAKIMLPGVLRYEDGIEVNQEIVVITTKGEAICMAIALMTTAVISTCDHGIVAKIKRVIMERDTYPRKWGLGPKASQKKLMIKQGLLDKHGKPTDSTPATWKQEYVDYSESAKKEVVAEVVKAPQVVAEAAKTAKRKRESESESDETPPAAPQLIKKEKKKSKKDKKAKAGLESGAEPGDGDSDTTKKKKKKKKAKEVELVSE
T1 sequence (Q9NPE3 whole entry partner): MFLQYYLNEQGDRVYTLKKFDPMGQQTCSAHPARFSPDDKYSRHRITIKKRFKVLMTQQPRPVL
T1 sequence (Q9NX24 whole entry partner): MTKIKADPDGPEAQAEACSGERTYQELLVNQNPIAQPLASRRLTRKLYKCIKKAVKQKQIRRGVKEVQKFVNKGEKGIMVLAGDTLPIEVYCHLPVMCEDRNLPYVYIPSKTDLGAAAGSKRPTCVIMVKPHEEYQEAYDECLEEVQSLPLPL
T1 sequence (Q9NY12 whole entry partner): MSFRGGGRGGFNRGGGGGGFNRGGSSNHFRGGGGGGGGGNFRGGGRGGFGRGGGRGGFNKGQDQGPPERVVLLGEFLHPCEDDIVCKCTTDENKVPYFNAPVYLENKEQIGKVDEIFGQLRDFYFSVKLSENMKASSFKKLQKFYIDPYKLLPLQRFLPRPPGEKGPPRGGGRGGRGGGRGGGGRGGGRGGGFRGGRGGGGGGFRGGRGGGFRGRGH

Structure (SMILES) | anti-telomerase activity (in words) | IC50 [1] | IC50 [2]
Nc1c(C(=O)c2ccc(Cl)c(Cl)c2)sc2nc(C=O)ccc12 [Compound VIII] | particularly good anti-telomerase activity; also recorded: strong telomerase inhibitors | 28 µM | < 30 µM
Nc1c(C(=O)c2ccc(Cl)c(Cl)c2)sc2nc(C=NC3C4CC5CC(C4)CC3C5)ccc12 (centres unmarked) [Compound V] | strong telomerase inhibitors | 30 µM | < 30 µM
CC(C)(C)c1ccc(-c2noc(-c3sc4nc(C=O)ccc4c3N)n2)cc1 [Compound X] |  | 42 µM | 
Nc1c(C(=O)c2ccc(Cl)c(Cl)c2)oc2nc(C=O)ccc12 [Compound XIV] |  | 31 µM | 
Nc1c(C(=O)c2ccc(Cl)cc2Cl)sc2nc(C=O)ccc12 [Compound VI] | particularly good anti-telomerase activity; also recorded: strong telomerase inhibitors | 29 µM | < 30 µM
Nc1c(C(=O)c2ccc(Cl)c(Cl)c2)sc2nc(C=NNc3ccc(Cl)cc3)ccc12 [Compound XII] | good anti-telomerase activity; also recorded: strong telomerase inhibitors | 21 µM | < 30 µM
Nc1c(C(=O)c2ccc(Cl)c(Cl)c2)sc2nc(C=NNc3ccccc3)ccc12 [Compound XI] | good anti-telomerase activity | 42 µM | 
Cc1cc(N=Cc2ccc3c(N)c(-c4ccc(Cl)c(Cl)c4)oc3n2)n[nH]1 [Compound XV] | good anti-telomerase activity | 49 µM | 
Nc1c(C(=O)c2ccc(Br)cc2)sc2nc(C=O)ccc12 [Compound VII] | particularly good anti-telomerase activity | 48 µM | 

Next, values leading:

anti-telomerase activity (in words) | IC50 [1] | IC50 [2] | Structure (SMILES)
strong telomerase inhibitors | 4 µM | < 30 µM | Nc1c(C(=O)c2ccc(Br)cc2)sc2nc(C=NC3C4CC5CC(C4)CC3C5)ccc12 (centres unmarked) [Compound III]
 | 26 µM |  | Nc1c(C(=O)c2ccc(Cl)cc2Cl)sc2nc(C=NC3C4CC5CC(C4)CC3C5)ccc12 (centres unmarked) [Compound IV]
strong telomerase inhibitors | 24 µM | < 30 µM | Nc1c(-c2ncc(C(F)(F)F)cc2Cl)sc2nc(C=O)ccc12 [Compound IX]
good anti-telomerase activity | 18 µM |  | Cc1ccc(NN=Cc2ccc3c(N)c(C(=O)c4ccc(Br)cc4)sc3n2)cc1 [Compound XIII]
